Source: paper PMC4042666 (Bioorganic & medicinal chemistry letters, 2013)

Columns and labels:
Thrombin = Thrombin (Homo sapiens, UniProt P00734); experiment: Effect on human protease Thrombin; assay type: biochemical
[1] = target: HCV NS3/4A protease genotype 1b mutant A156T (Hepatitis C virus genotype 1b, UniProt Q9WMX2, A1182T); experiment: biochemical
[2] = test system: HCV NS3/4A protease genotype 1b mutant A156T; experiment: biochemical; settings: A156T vs wild type
Plasmin = Plasmin (Homo sapiens, UniProt P00747); experiment: Effect on human protease Plasmin; assay type: biochemical; settings: read-out: Plasmin IC90
Sequence of Plasmin (P00747 581-810 limits assumed): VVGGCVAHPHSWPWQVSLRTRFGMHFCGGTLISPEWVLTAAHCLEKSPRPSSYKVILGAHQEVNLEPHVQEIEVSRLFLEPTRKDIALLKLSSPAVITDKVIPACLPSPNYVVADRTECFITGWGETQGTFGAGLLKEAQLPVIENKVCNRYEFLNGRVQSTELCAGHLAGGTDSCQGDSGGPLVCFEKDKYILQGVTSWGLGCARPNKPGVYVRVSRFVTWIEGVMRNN
Sequence of Plasmin (P00747 97-580 partner limits assumed): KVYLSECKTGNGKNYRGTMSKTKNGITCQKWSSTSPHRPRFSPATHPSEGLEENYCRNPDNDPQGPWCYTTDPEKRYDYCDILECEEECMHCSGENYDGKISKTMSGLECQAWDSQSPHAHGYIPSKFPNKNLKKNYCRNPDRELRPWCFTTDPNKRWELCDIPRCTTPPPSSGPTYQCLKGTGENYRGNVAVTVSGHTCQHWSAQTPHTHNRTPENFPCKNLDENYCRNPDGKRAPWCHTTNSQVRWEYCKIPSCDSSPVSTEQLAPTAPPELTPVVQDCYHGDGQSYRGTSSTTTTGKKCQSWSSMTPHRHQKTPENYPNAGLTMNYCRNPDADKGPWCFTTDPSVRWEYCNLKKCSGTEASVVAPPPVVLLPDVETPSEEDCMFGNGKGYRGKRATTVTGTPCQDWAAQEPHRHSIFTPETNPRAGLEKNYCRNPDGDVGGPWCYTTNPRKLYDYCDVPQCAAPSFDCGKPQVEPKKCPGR

[3] = test system: HCV Replicon in Huh7 cells; experiment: Inhibition of HCV RNA replication, subgenomic HCV replicon system in Huh7 cells; assay type: cell-based, Hepatitis C virus
[4] = test system: HCV NS3/4A protease genotype 1b mutant V170A; assay type: biochemical; settings: V170A vs wild type
[5] = test system: HCV NS3/4A protease genotype 1b mutant A156S; assay type: biochemical; settings: A156S vs wild type
[6] = test system: CEM cells (a human-T-cell-derived cell line); experiment: Cytotoxicity in CEM cells; assay type: cell-based
[7] = test system: primary human PBM (peripheral blood mononuclear) cells; experiment: Cytotoxicity in PBM cells; assay type: cell-based
[8] = test system: Vero cells (African green monkey kidney epithelial cells); experiment: Cytotoxicity in Vero cells; assay type: cell-based
Huh7 cells = experiment: Cytotoxicity in Huh7 cells
[9] = test system: HCV NS3/4A protease genotype 1b mutant R155K; assay type: biochemical; settings: R155K vs wild type
[10] = test system: HCV NS3/4A protease genotype 1b mutant D168V; assay type: biochemical; settings: D168V vs wild type

CC(C)(C)NC(=O)N[C@H](C(=O)N1C[C@H]2[C@@H]([C@H]1C(=O)NC(CC1CCC1)C(=O)C(N)=O)C2(C)C)C(C)(C)C (stereo partly drawn) [Compound 1, boceprevir]
Inhibition of thrombin, in words (Thrombin): submicromolar inhibition
EC90 [1]: > 100 µM

CCC[C@H](NC(=O)[C@@H]1[C@H]2CCC[C@H]2CN1C(=O)[C@@H](NC(=O)[C@@H](NC(=O)c1cnccn1)C1CCCCC1)C(C)(C)C)C(=O)C(=O)NC1CC1 [Compound 2, telaprevir]
EC90 [1]: > 100 µM
Fold Increase (FI) of EC90 [2]: > 130
IC90 (Plasmin): 110 ± 32 µM

CCCC(NC(=O)C1N(C(=O)[C@@H](NC(=O)[C@@H](NC(=O)c2cnccn2)C2CCCCC2)C(C)(C)C)CC12Cc1ccccc1C2)C(=O)C(=O)NC1CC1 (stereo partly drawn) [Compound 37b]
Anti-HCV activity, in words [3]: complete loss of potency

CCCC(NC(=O)C1CCN1C(=O)[C@@H](NC(=O)[C@@H](NC(=O)c1cnccn1)C1CCCCC1)C(C)(C)C)C(=O)C(=O)NC1CC1 (stereo partly drawn) [Compound 37d]
Anti-HCV activity, in words [3]: inactive

CCCC(NC(=O)C1N(C(=O)[C@@H](NC(=O)[C@@H](NC(=O)c2cnccn2)C2CCCCC2)C(C)(C)C)CC12CCCCC2)C(=O)C(=O)NC1CC1 (stereo partly drawn) [Compound 37h]
EC90 [1]: > 100 µM
Fold Increase (FI) of EC50 [2]: > 130
Fold Increase (FI) of EC90 [2]: > 10
Fold Increase (FI) of EC50 [4]: > 1.2
Fold Increase (FI) of EC90 [5]: > 10
Toxicity in CEM cells, in words [6]: toxicity in the micromolar range
Toxicity in PBM cells, in words [7]: toxicity in the micromolar range
Toxicity in Vero cells, in words [8]: toxicity in the micromolar range

CCCC(NC(=O)C1N(C(=O)[C@@H](NC(=O)NC2CCCCC2)C(C)(C)C)CC12Cc1ccccc1C2)C(=O)C(=O)NC1CC1 (stereo partly drawn) [Compound 41e]
Toxicity toward Huh7 cells, in words (Huh7 cells): toxic

CC(C)(C)[C@H](NC(=O)NC1CCCCC1)C(=O)N1CC2(Cc3ccccc3C2)C1C(=O)NC(CC1CCC1)C(=O)C(=O)NC1CC1 (stereo partly drawn) [Compound 41f]
Toxicity toward Huh7 cells, in words (Huh7 cells): toxic

CC[C@@H]1C[C@]1(NC(=O)[C@@H]1C[C@@H]2CN1C(=O)[C@H](C(C)(C)C)NC(=O)OCC(C)(C)CCCCc1cccc3c1CN(C3)C(=O)O2)C(=O)NS(=O)(=O)C1CC1 [MK-7009, vaniprevir]
Fold Increase (FI) of EC50 [9]: > 160
Fold Increase (FI) of EC90 [9]: > 77
EC90 [1]: > 1 µM
Fold Increase (FI) of EC90 [2]: > 77
Fold Increase (FI) of EC50 [10]: > 160
Fold Increase (FI) of EC90 [10]: > 77
Fold Increase (FI) of EC50 [5]: < 0.16
